Measured values taken from patent publication US10323022B2, “Pyrrolidinyl urea, pyrrolidinyl thiourea and pyrrolidinyl guanidine compounds as TrkA kinase inhibitors” (Array BioPharma Inc., priority 2011, dated 2019).
Structures can show the parent of a compound that is named as a salt.

These compounds were tested against TrkA (Homo sapiens (Human), UniProt P04629) (assay: TrkA Omnia Assay). Details: averaged IC50; 20 nM enzyme, 500 μM ATP, 10 μM peptide substrate.
Chain of TrkA (P04629 33-796): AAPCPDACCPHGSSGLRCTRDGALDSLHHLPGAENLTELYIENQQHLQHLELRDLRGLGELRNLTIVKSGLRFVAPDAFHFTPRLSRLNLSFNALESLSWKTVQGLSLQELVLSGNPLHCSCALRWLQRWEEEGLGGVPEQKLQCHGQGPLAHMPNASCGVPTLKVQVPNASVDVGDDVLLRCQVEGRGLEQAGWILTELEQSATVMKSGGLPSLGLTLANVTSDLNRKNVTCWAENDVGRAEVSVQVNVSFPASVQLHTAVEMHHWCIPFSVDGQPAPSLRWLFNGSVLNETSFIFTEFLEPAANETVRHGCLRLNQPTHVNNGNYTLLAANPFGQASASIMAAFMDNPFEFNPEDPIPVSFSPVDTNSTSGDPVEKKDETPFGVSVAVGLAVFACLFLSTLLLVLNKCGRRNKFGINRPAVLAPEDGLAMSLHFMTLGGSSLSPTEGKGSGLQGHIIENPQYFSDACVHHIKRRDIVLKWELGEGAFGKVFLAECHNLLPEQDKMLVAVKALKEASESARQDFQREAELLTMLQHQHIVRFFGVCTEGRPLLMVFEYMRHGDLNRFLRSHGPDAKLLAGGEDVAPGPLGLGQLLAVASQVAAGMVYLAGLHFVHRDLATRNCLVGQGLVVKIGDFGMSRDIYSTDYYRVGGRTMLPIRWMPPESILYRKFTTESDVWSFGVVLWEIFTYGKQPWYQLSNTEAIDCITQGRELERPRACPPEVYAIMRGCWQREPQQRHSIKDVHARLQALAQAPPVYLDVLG
Type: biochemical
In short: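 Recombinant TrkA (20 nM) preincubated 10 min at ambient temperature with compound, then Omnia Tyr Peptide #4 (10 μM) and ATP (500 μM) added in 25 mM MOPS pH 7.5, 5 mM MgCl2, 0.005% Triton X-100. Fluorescence (ex 360/em 485 nm) followed continuously for 70 min; IC50 from initial rates by 4- or 5-parameter logistic fit.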
`COc1ncccc1N1C[C@@H](NC(=O)Nc2c(Br)c(-c3cnn(C)c3)nn2-c2ccccc2)[C@H](c2ccccc2)C1` [Example 246, 1-(4-bromo-1′-methyl-1-phenyl-1H,1′H-[3,4′-bipyrazol]-5-yl)-3-((3S,4R)-1-(2-methoxypyridin-3-yl)-4-phenylpyrrolidin-3-yl)urea] showed an IC50 of under 0.1 µM. Work on `COc1ncccc1N1C[C@@H](NC(=O)Nc2c(Br)c(-c3ccccc3)nn2-c2ccccc2)[C@H](c2ccccc2)C1` [Example 247, 1-(4-bromo-1,3-diphenyl-1H-pyrazol-5-yl)-3-((3S,4R)-1-(2-methoxypyridin-3-yl)-4-phenylpyrrolidin-3-yl)urea] yielded an IC50 of 0.1 to 1 µM. With `O=C(Nc1c2c(nn1-c1ccccc1)CCC2)N[C@@H]1CN(Cc2csnn2)C[C@H]1c1ccc(F)c(F)c1` [Example 248, 1-((3S,4R)-1-((1,2,3-thiadiazol-4-yl)methyl)-4-(3,4-difluorophenyl)pyrrolidin-3-yl)-3-(2-phenyl-2,4,5,6-tetrahydrocyclopenta[c]pyrazol-3-yl)urea] the IC50 was under 0.1 µM. Work on `CCOc1nn(-c2ccccc2)c(NC(=O)N[C@@H]2CN(Cc3csnn3)C[C@H]2c2ccc(F)c(F)c2)c1C` [Example 249, 1-((3S,4R)-1-((1,2,3-thiadiazol-4-yl)methyl)-4-(3,4-difluorophenyl)pyrrolidin-3-yl)-3-(3-ethoxy-4-methyl-1-phenyl-1H-pyrazol-5-yl)urea] yielded an IC50 of under 0.1 µM. For `Cc1c(OCC#N)nn(-c2ccccc2)c1NC(=O)N[C@@H]1CN(Cc2csnn2)C[C@H]1c1ccc(F)c(F)c1` [Example 250, 1-((3S,4R)-1-((1,2,3-thiadiazol-4-yl)methyl)-4-(3,4-difluorophenyl)pyrrolidin-3-yl)-3-(3-(cyanomethoxy)-4-methyl-1-phenyl-1H-pyrazol-5-yl)urea], the IC50 was under 0.1 µM. `Cc1c(-c2cnn(C)c2)nn(-c2ccccc2)c1NC(=O)N[C@@H]1CN(Cc2csnn2)C[C@H]1c1ccc(F)c(F)c1` [Example 251, 1-((3S,4R)-1-((1,2,3-thiadiazol-4-yl)methyl)-4-(3,4-difluorophenyl)pyrrolidin-3-yl)-3-(1′,4-dimethyl-1-phenyl-1H, 1′H-3,4′-bipyrazol-5-yl)urea] gave an IC50 of under 0.1 µM. Compound `Cc1c(-c2cn(C)cn2)nn(-c2ccccc2)c1NC(=O)N[C@@H]1CN(Cc2csnn2)C[C@H]1c1ccc(F)c(F)c1` [Example 252, 1-((3S,4R)-1-((1,2,3-thiadiazol-4-yl)methyl)-4-(3,4-difluorophenyl)pyrrolidin-3-yl)-3-(4-methyl-3-(1-methyl-1H-imidazol-4-yl)-1-phenyl-1H-pyrazol-5-yl)urea] has an IC50 of under 0.1 µM. `Cn1cc(CN2C[C@@H](NC(=O)Nc3c4c(nn3-c3ccccc3)CCC4)[C@H](c3ccc(F)c(F)c3)C2)nn1` [Example 253, 1-((3S,4R)-4-(3,4-difluorophenyl)-1-((1-methyl-1H-1,2,3-triazol-4-yl)methyl)pyrrolidin-3-yl)-3-(2-phenyl-2,4,5,6-tetrahydrocyclopenta[c]pyrazol-3-yl)urea] showed an IC50 of 0.1 to 1 µM. Compound `CCOc1nn(-c2ccccc2)c(NC(=O)N[C@@H]2CN(C(COC)COC)C[C@H]2c2ccc(F)c(F)c2)c1C` [Example 254, 1-((3S,4R)-4-(3,4-difluorophenyl)-1-(1,3-dimethoxypropan-2-yl)pyrrolidin-3-yl)-3-(3-ethoxy-4-methyl-1-phenyl-1H-pyrazol-5-yl)urea] has an IC50 of under 0.1 µM. Work on `CCOc1nn(-c2ccccc2)c(NC(=O)N[C@@H]2CN(C(C)COC)C[C@H]2c2ccc(F)c(F)c2)c1C` (stereo partly drawn) [Example 255, 1-((3S,4R)-4-(3,4-difluorophenyl)-1-(1-methoxypropan-2-yl)pyrrolidin-3-yl)-3-(3-ethoxy-4-methyl-1-phenyl-1H-pyrazol-5-yl)urea] yielded an IC50 of under 0.1 µM. For `COCC(C(=O)OC)N1C[C@@H](NC(=O)Nc2c3c(nn2-c2ccccc2)CCC3)[C@H](c2ccc(F)c(F)c2)C1` (stereo partly drawn) [Example 259, methyl2-((3R,4S)-3-(3,4-difluorophenyl)-4-(3-(2-phenyl-2,4,5,6-tetrahydrocyclopenta[c]pyrazol-3-yl)ureido)pyrrolidin-1-yl)-3-methoxypropanoate], the IC50 was under 0.1 µM. In the case of `COCC(CO)N1C[C@@H](NC(=O)Nc2c3c(nn2-c2ccccc2)CCC3)[C@H](c2ccc(F)c(F)c2)C1` (stereo partly drawn) [Example 260, 1-((3S,4R)-4-(3,4-difluorophenyl)-1-(1-hydroxy-3-methoxypropan-2-yl)pyrrolidin-3-yl)-3-(2-phenyl-2,4,5,6-tetrahydrocyclopenta[c]pyrazol-3-yl)urea], the IC50 is reported as under 0.1 µM. For `COCC(N1C[C@@H](NC(=O)Nc2c3c(nn2-c2ccccc2)CCC3)[C@H](c2ccc(F)c(F)c2)C1)C(C)(C)O` (stereo partly drawn) [Example 261, 1-((3S,4R)-4-(3,4-difluorophenyl)-1-(3-hydroxy-1-methoxy-3-methylbutan-2-yl)pyrrolidin-3-yl)-3-(2-phenyl-2,4,5,6-tetrahydrocyclopenta[c]pyrazol-3-yl)urea], the IC50 was 0.1 to 1 µM. For `COCC(C(=O)O)N1C[C@@H](NC(=O)Nc2c3c(nn2-c2ccccc2)CCC3)[C@H](c2ccc(F)c(F)c2)C1` (stereo partly drawn) [Example 262, 2-((3R,4S)-3-(3,4-difluorophenyl)-4-(3-(2-phenyl-2,4,5,6-tetrahydrocyclopenta[c]pyrazol-3-yl)ureido)pyrrolidin-1-yl)-3-methoxypropanoic acid hydrochloride], the IC50 was 1 to 10 µM. With `CCOc1nn(-c2ccccc2)c(NC(=O)N[C@@H]2CN(C(CO)COC)C[C@H]2c2ccc(F)c(F)c2)c1C` (stereo partly drawn) [Example 263, 1-((3S,4R)-4-(3,4-difluorophenyl)-1-(1-hydroxy-3-methoxypropan-2-yl)pyrrolidin-3-yl)-3-(3-ethoxy-4-methyl-1-phenyl-1H-pyrazol-5-yl)urea] the IC50 was under 0.1 µM. In the case of `COCC(CO)N1C[C@@H](NC(=O)Nc2c(Cl)c(-c3cnn(C)c3)nn2-c2ccccc2)[C@H](c2ccc(F)c(F)c2)C1` (stereo partly drawn) [Example 264], the IC50 is reported as under 0.1 µM. `Cc1nn(-c2ccccc2)c(NC(=O)N[C@H]2CN(CC(F)(F)F)C[C@@H]2c2ccccc2)c1C` [Example 265, 1-(3,4-dimethyl-1-phenyl-1H-pyrazol-5-yl)-3-((3R,4S)-4-phenyl-1-(2,2,2-trifluoroethyl)pyrrolidin-3-yl)urea] showed an IC50 of under 0.1 µM. In the case of `Cc1c(OCCF)nn(-c2ccccc2)c1NC(=O)N[C@H]1CN(CC(F)(F)F)C[C@@H]1c1ccccc1` [Example 266, 1-(3-(2-fluoroethoxy)-4-methyl-1-phenyl-1H-pyrazol-5-yl)-3-((3R,4S)-4-phenyl-1-(2,2,2-trifluoroethyl)pyrrolidin-3-yl)urea], the IC50 is reported as under 0.1 µM. With `CCOc1nn(-c2ccccc2)c(NC(=O)N[C@H]2CN(CC(F)(F)F)C[C@@H]2c2ccccc2)c1C` [Example 267, 1-(3-ethoxy-4-methyl-1-phenyl-1H-pyrazol-5-yl)-3-((3R,4S)-4-phenyl-1-(2,2,2-trifluoroethyl)pyrrolidin-3-yl)urea] the IC50 was under 0.1 µM. With `Cc1c(OCC#N)nn(-c2ccccc2)c1NC(=O)N[C@H]1CN(CC(F)(F)F)C[C@@H]1c1ccccc1` [Example 268, 1-(3-(cyanomethoxy)-4-methyl-1-phenyl-1H-pyrazol-5-yl)-3-((3R,4S)-4-phenyl-1-(2,2,2-trifluoroethyl)pyrrolidin-3-yl)urea] the IC50 was under 0.1 µM. `Cc1c(-c2cnn(C)c2)nn(-c2ccccc2)c1NC(=O)N[C@H]1CN(CC(F)(F)F)C[C@@H]1c1ccccc1` [Example 269, 1-(1′,4-dimethyl-1-phenyl-1H,1′H-3,4′-bipyrazol-5-yl)-3-((3R,4S)-4-phenyl-1-(2,2,2-trifluoroethyl)pyrrolidin-3-yl)urea] was tested, and the IC50 was under 0.1 µM.
